# Experimental data: patent publication US20230121313A1 (priority 2019, published 2023)
# System: subjects with MDD at imminent risk for suicide
# Conditions: 84 mg
# Source text: Among 68 randomized subjects, 66 were included in the safety analysis set (defined as receiving at least one dose of study medication in the double-blind phase). […] All safety subjects (N=66) were included in the intent-to-treat (ITT) analysis set (defined as receiving at least one dose of study medication during the double-blind phase and having both the baseline and the Day 1, 4-hour postdose evaluation for the MADRS total score). Forty-nine subjects were included in the safety (FU) analysis set (defined as all subjects who have at least 1 visit during the follow up phase).
structure (smiles),measurement,setting,value
"CN[C@]1(c2ccccc2Cl)CCCCC1=O [esketamine, (S)-2-(2-chlorophenyl)-2-(methylamino)cyclohexanone]","Serious TEAE: Agitation, subjects (%)","double-blind phase, N = 35",2.9%
same,"Serious TEAE: Depressive symptom, subjects (%)","double-blind phase, N = 35",2.9%
same,"Serious TEAE: Psychiatric disorders, subjects (%)","double-blind phase, N = 35",11.4%
same,"Serious TEAE: Suicidal ideation, subjects (%)","double-blind phase, N = 35",5.7%
same,Subjects with 1 or more serious TEAE (%),"double-blind phase, N = 35",11.4%
same,Subjects with TEAE leading to drug withdrawn (%),"double-blind phase, N = 35",14.3%
same,"TEAE Acne, subjects (%)","double-blind phase, N = 35",(5.7%)
same,"TEAE Agitation, subjects (%)","double-blind phase, N = 35",(8.6%)
same,"TEAE Anxiety, subjects (%)","double-blind phase, N = 35",(17.1%)
same,"TEAE Blood pressure increased, subjects (%)","double-blind phase, N = 35",(5.7%)
same,"TEAE Diarrhea, subjects (%)","double-blind phase, N = 35",(8.6%)
same,"TEAE Diplopia, subjects (%)","double-blind phase, N = 35",(5.7%)
same,"TEAE Dissociation, subjects (%)","double-blind phase, N = 35",(31.4%)
same,"TEAE Dizziness postural, subjects (%)","double-blind phase, N = 35",(5.7%)
same,"TEAE Dizziness, subjects (%)","double-blind phase, N = 35",(34.3%)
same,"TEAE Dry mouth, subjects (%)","double-blind phase, N = 35",(8.6%)
same,"TEAE Dysgeusia, subjects (%)","double-blind phase, N = 35",(31.4%)
same,"TEAE Ear and labyrinth disorders, subjects (%)","double-blind phase, N = 35",(25.7%)
same,"TEAE Euphoric mood, subjects (%)","double-blind phase, N = 35",(11.4%)
same,"TEAE Eye disorders, subjects (%)","double-blind phase, N = 35",(20.0%)
same,"TEAE Fatigue, subjects (%)","double-blind phase, N = 35",(5.7%)
same,"TEAE Feeling abnormal, subjects (%)","double-blind phase, N = 35",(8.6%)
same,"TEAE Feeling cold, subjects (%)","double-blind phase, N = 35",(5.7%)
same,"TEAE Flatulence, subjects (%)","double-blind phase, N = 35",(2.9%)
same,"TEAE Gastrointestinal disorders, subjects (%)","double-blind phase, N = 35",(54.3%)
same,"TEAE General disorders and administration site conditions, subjects (%)","double-blind phase, N = 35",(28.6%)
same,"TEAE Headache, subjects (%)","double-blind phase, N = 35",(31.4%)
same,"TEAE Hyperacusis, subjects (%)","double-blind phase, N = 35",(5.7%)
same,"TEAE Hyperhidrosis, subjects (%)","double-blind phase, N = 35",(5.7%)
same,"TEAE Hypoesthesia oral, subjects (%)","double-blind phase, N = 35",(5.7%)
same,"TEAE Hypoesthesia, subjects (%)","double-blind phase, N = 35",(8.6%)
same,"TEAE Infections and infestations, subjects (%)","double-blind phase, N = 35",(2.9%)
same,"TEAE Insomnia, subjects (%)","double-blind phase, N = 35",(8.6%)
same,"TEAE Investigations, subjects (%)","double-blind phase, N = 35",(14.3%)
same,"TEAE Nasal congestion, subjects (%)","double-blind phase, N = 35",(2.9%)
same,"TEAE Nasal discomfort, subjects (%)","double-blind phase, N = 35",(8.6%)
same,"TEAE Nausea, subjects (%)","double-blind phase, N = 35",(37.1%)
same,"TEAE Nervous system disorders, subjects (%)","double-blind phase, N = 35",(71.4%)
same,"TEAE Oropharyngeal pain, subjects (%)","double-blind phase, N = 35",(5.7%)
same,"TEAE Paresthesia oral, subjects (%)","double-blind phase, N = 35",(5.7%)
same,"TEAE Paresthesia, subjects (%)","double-blind phase, N = 35",(17.1%)
same,"TEAE Pharyngeal hypoesthesia, subjects (%)","double-blind phase, N = 35",(5.7%)
same,"TEAE Psychiatric disorders, subjects (%)","double-blind phase, N = 35",(57.1%)
same,"TEAE Rash, subjects (%)","double-blind phase, N = 35",(2.9%)
same,"TEAE Renal and urinary disorders, subjects (%)","double-blind phase, N = 35",(2.9%)
same,"TEAE Respiratory, thoracic and mediastinal disorders, subjects (%)","double-blind phase, N = 35",(25.7%)
same,"TEAE Sedation, subjects (%)","double-blind phase, N = 35",(17.1%)
same,"TEAE Skin and subcutaneous tissue disorders, subjects (%)","double-blind phase, N = 35",(14.3%)
same,"TEAE Somnolence, subjects (%)","double-blind phase, N = 35",(11.4%)
same,"TEAE Suicidal ideation, subjects (%)","double-blind phase, N = 35",(5.7%)
same,"TEAE Throat irritation, subjects (%)","double-blind phase, N = 35",(8.6%)
same,"TEAE Tinnitus, subjects (%)","double-blind phase, N = 35",(5.7%)
same,"TEAE Vertigo, subjects (%)","double-blind phase, N = 35",(11.4%)
same,"TEAE Vision blurred, subjects (%)","double-blind phase, N = 35",(8.6%)
same,"TEAE Vomiting, subjects (%)","double-blind phase, N = 35",(20.0%)
same,"TEAE Weight increased, subjects (%)","double-blind phase, N = 35",(5.7%)
same,"TEAE leading to study discontinuation: Aggression, subjects (%)","double-blind phase, N = 35",2.9%
same,"TEAE leading to study discontinuation: Agitation, subjects (%)","double-blind phase, N = 35",2.9%
same,"TEAE leading to study discontinuation: Cardiac disorders, subjects (%)","double-blind phase, N = 35",2.9%
same,"TEAE leading to study discontinuation: Dizziness, subjects (%)","double-blind phase, N = 35",2.9%
same,"TEAE leading to study discontinuation: Dysgeusia, subjects (%)","double-blind phase, N = 35",2.9%
same,"TEAE leading to study discontinuation: Dyspnea, subjects (%)","double-blind phase, N = 35",2.9%
same,"TEAE leading to study discontinuation: Gastrointestinal disorders, subjects (%)","double-blind phase, N = 35",2.9%
same,"TEAE leading to study discontinuation: Nausea, subjects (%)","double-blind phase, N = 35",2.9%
same,"TEAE leading to study discontinuation: Nervous system disorders, subjects (%)","double-blind phase, N = 35",5.7%
same,"TEAE leading to study discontinuation: Psychiatric disorders, subjects (%)","double-blind phase, N = 35",5.7%
same,"TEAE leading to study discontinuation: Respiratory, thoracic and mediastinal disorders, subjects (%)","double-blind phase, N = 35",2.9%
same,"TEAE leading to study discontinuation: Ventricular extrasystoles, subjects (%)","double-blind phase, N = 35",2.9%
same,Total no. subjects with TEAE leading to study discontinuation (%),"double-blind phase, N = 35",14.3%
same,Subjects with possibly related TEAE (%),"double-blind phase, N = 35, possible, probable, very likely",82.9%
same,"AE Abdominal pain, subjects (%)","follow up phase, N = 27",(3.7%)
same,"AE Abdominal tenderness, subjects (%)","follow up phase, N = 27",(3.7%)
same,"AE Back pain, subjects (%)","follow up phase, N = 27",(3.7%)
same,"AE Cogwheel rigidity, subjects (%)","follow up phase, N = 27",(3.7%)
